Results taken from ChEMBL document CHEMBL1201862, “PubChem BioAssay data set” (2004).
Blank lines part the entries; values can stand above or below the molecule they belong to. Calls of active or inactive are those of the source.

Columns and labels:
[1] = molecular target: Serine/threonine-protein kinase MRCK alpha (Homo sapiens, UniProt Q5VT25); type: functional
[2] = molecular target: Casein kinase II subunit alpha (Homo sapiens, UniProt P68400); type: functional
[3] = molecular target: Cyclin-dependent kinase 1 (Homo sapiens, UniProt P06493); type: functional;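 further: Kinome-wide panel profiling, with the target listed as panel member CDC2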
[4] = molecular target: Megakaryocyte-associated tyrosine-protein kinase (Homo sapiens, UniProt P42679); type: functional;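 further: affinity measured as one member of a kinase panel (Navigating the Kinome) against MATK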
[5] = molecular target: Ribosomal protein S6 kinase beta-1 (Homo sapiens, UniProt P23443); type: functional;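 further: measured as one member of a kinome-wide profiling panel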
[6] = molecular target: Tyrosine-protein kinase receptor UFO (Homo sapiens, UniProt P30530); type: functional
[7] = molecular target: Tyrosine-protein kinase BTK (Homo sapiens, UniProt Q06187); type: functional
[8] = molecular target: MAP kinase-activated protein kinase 5 (Homo sapiens, UniProt Q8IW41); type: functional;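 further: measured as one member of a kinome panel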
[9] = molecular target: Receptor tyrosine-protein kinase erbB-2 (Homo sapiens, UniProt P04626); test: Navigating the Kinome. Panel member name: ERBB2; type: functional
Receptor tyrosine-protein kinase erbB-2, sequence (P04626 whole entry): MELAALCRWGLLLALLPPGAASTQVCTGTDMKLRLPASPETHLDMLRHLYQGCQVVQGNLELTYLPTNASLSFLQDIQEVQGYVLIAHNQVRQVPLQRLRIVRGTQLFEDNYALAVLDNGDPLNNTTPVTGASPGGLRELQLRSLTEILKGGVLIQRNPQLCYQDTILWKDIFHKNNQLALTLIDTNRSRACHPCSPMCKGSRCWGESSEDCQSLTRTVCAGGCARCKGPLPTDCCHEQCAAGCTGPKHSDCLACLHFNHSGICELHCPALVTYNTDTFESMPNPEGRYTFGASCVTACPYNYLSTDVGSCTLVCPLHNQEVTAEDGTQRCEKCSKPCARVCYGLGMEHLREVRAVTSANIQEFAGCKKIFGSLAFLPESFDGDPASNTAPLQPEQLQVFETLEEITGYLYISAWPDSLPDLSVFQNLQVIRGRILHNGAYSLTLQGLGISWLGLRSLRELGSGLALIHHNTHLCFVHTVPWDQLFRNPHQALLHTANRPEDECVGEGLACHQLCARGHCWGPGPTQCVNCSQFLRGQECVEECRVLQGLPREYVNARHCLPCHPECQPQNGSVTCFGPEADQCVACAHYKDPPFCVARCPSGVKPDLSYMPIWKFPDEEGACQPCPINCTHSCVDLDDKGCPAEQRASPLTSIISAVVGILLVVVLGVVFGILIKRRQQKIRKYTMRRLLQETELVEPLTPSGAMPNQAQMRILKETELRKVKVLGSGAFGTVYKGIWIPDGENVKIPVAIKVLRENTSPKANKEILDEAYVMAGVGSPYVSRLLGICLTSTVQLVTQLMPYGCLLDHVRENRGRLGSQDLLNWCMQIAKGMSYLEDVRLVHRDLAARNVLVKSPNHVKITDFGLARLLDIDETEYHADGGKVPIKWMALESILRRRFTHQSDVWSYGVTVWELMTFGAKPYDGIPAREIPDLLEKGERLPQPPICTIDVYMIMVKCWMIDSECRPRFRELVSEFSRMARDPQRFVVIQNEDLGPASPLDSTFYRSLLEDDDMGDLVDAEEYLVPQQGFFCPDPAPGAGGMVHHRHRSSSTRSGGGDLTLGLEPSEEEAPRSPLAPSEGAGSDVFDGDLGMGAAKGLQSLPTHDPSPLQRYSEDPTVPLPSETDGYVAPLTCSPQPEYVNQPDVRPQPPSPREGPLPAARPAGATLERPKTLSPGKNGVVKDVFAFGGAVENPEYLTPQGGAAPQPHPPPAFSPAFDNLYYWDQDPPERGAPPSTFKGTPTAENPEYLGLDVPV

[10] = molecular target: Tyrosine-protein kinase Srms (Homo sapiens, UniProt Q9H3Y6); type: functional;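 further: SRMS measured as one member of a kinome-wide kinase profiling panel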
Tyrosine-protein kinase Srms, sequence (Q9H3Y6 whole entry): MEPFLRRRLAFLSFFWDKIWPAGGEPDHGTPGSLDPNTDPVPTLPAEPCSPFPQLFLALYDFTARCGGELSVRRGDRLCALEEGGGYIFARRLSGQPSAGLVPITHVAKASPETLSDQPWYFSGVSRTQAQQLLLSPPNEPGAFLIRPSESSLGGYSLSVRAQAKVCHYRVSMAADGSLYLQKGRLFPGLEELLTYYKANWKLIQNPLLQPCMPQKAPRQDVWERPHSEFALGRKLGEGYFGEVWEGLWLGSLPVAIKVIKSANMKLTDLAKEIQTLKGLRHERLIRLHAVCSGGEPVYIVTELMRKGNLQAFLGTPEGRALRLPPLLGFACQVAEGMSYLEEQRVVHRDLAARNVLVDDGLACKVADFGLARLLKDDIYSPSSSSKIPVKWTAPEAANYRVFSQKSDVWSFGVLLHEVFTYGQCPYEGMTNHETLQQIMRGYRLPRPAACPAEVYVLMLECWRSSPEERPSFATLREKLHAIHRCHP

[11] = molecular target: Fibroblast growth factor receptor 3 (Homo sapiens, UniProt P22607); type: functional
Fibroblast growth factor receptor 3, sequence (P22607 whole entry, canonical isoform): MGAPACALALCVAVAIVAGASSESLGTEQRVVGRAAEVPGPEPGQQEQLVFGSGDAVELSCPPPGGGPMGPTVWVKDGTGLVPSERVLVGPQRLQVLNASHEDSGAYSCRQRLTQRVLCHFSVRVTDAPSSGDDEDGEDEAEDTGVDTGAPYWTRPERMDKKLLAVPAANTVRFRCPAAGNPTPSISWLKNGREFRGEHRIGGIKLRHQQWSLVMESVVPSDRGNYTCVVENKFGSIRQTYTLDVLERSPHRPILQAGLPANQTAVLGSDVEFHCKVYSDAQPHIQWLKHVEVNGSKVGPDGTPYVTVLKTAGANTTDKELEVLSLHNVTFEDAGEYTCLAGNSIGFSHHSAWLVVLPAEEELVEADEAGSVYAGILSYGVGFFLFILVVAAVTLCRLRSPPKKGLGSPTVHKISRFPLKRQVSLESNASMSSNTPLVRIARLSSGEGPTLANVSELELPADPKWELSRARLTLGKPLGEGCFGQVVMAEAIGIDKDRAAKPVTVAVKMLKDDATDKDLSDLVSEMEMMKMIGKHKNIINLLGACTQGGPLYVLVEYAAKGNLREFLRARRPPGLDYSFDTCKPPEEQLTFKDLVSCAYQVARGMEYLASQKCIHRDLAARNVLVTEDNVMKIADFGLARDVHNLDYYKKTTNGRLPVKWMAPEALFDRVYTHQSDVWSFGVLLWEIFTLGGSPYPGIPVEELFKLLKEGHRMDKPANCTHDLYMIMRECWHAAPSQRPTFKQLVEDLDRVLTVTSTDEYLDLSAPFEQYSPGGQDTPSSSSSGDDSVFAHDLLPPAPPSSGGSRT

[12] = molecular target: Casein kinase I isoform alpha (Homo sapiens, UniProt P48729); type: functional
Casein kinase I isoform alpha, sequence (P48729 whole entry, canonical isoform): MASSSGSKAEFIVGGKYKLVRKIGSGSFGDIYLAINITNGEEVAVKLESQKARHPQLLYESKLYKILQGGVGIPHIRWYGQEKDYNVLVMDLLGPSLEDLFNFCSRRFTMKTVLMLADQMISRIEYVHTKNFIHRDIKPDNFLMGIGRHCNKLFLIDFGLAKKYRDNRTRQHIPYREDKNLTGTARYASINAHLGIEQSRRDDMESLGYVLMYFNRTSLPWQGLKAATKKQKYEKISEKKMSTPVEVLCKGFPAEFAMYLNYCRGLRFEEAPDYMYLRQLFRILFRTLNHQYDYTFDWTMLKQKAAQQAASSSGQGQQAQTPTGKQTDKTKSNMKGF

[13] = molecular target: C-C chemokine receptor type 6 (Homo sapiens, UniProt P51684); test: CCR6 receptor antagonists, dose response, cell-based, luminescent beta-arrestin readout (AID 504728); type: functional
[14] = molecular target: T1, Heat shock factor protein 1 (Mus musculus, UniProt P38532); test: inhibition of MG132-induced HSE-luciferase signal, confirmation, cell-based, NIH3T3, luminescence, dose retest (AID 2382); type: functional;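 further: NIH3T3 fibroblasts with HSF1-driven luciferase reporter stressed by proteasome inhibitor MG132; luminescence from HSF1-driven luciferase expression after 8 hours of MG132 stress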
T1 sequence (P38532 whole entry): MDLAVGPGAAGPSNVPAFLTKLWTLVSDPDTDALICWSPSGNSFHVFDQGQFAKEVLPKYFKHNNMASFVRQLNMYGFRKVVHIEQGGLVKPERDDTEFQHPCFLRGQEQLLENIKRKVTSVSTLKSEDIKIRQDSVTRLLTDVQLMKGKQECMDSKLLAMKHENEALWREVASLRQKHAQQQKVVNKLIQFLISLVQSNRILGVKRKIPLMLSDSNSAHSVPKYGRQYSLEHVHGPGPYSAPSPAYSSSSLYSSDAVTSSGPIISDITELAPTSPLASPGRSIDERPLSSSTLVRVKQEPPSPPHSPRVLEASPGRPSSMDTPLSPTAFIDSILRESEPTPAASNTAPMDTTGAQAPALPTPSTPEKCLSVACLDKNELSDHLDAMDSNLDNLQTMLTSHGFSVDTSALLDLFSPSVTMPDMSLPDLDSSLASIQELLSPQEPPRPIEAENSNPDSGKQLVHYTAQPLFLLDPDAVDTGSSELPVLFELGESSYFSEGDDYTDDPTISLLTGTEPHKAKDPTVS

[15] = molecular target: Voltage-gated N-type calcium channel alpha-1B subunit/Amyloid beta A4 precursor protein-binding family A member 1 (Homo sapiens, UniProt Q00975+Q02410); type: protein assay
[16] = molecular target: T2, Hexokinase HKDC1 (Homo sapiens, UniProt Q2TB90); test: HKDC1 hexokinase inhibitors, dose response, biochemical, W721R variant (AID 504729); type: functional
T2 sequence (Q2TB90 whole entry): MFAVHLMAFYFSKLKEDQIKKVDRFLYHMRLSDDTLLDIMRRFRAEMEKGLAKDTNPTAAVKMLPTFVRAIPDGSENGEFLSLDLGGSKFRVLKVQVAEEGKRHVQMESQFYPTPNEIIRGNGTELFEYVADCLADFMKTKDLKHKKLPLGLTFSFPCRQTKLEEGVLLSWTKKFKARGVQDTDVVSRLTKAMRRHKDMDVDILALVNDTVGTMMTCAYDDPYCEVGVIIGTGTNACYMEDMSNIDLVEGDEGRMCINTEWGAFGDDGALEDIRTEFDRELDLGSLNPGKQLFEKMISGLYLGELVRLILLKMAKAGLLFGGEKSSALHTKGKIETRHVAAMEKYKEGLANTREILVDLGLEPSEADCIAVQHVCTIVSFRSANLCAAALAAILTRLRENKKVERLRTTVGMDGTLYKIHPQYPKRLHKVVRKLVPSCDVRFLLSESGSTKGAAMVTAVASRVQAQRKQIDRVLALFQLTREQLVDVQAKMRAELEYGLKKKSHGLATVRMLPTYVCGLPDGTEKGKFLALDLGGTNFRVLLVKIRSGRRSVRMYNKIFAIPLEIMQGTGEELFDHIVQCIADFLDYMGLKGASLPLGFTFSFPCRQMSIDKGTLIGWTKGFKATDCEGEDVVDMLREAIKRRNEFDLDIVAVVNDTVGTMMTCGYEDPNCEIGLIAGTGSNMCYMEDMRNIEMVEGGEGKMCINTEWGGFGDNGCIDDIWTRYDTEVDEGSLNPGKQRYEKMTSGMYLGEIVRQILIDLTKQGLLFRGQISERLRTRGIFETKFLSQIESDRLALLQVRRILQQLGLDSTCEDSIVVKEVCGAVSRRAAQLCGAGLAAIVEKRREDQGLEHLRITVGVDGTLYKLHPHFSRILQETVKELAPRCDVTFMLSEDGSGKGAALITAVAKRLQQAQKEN

Serine/threonine-protein kinase MRCK alpha, sequence (Q5VT25 whole entry): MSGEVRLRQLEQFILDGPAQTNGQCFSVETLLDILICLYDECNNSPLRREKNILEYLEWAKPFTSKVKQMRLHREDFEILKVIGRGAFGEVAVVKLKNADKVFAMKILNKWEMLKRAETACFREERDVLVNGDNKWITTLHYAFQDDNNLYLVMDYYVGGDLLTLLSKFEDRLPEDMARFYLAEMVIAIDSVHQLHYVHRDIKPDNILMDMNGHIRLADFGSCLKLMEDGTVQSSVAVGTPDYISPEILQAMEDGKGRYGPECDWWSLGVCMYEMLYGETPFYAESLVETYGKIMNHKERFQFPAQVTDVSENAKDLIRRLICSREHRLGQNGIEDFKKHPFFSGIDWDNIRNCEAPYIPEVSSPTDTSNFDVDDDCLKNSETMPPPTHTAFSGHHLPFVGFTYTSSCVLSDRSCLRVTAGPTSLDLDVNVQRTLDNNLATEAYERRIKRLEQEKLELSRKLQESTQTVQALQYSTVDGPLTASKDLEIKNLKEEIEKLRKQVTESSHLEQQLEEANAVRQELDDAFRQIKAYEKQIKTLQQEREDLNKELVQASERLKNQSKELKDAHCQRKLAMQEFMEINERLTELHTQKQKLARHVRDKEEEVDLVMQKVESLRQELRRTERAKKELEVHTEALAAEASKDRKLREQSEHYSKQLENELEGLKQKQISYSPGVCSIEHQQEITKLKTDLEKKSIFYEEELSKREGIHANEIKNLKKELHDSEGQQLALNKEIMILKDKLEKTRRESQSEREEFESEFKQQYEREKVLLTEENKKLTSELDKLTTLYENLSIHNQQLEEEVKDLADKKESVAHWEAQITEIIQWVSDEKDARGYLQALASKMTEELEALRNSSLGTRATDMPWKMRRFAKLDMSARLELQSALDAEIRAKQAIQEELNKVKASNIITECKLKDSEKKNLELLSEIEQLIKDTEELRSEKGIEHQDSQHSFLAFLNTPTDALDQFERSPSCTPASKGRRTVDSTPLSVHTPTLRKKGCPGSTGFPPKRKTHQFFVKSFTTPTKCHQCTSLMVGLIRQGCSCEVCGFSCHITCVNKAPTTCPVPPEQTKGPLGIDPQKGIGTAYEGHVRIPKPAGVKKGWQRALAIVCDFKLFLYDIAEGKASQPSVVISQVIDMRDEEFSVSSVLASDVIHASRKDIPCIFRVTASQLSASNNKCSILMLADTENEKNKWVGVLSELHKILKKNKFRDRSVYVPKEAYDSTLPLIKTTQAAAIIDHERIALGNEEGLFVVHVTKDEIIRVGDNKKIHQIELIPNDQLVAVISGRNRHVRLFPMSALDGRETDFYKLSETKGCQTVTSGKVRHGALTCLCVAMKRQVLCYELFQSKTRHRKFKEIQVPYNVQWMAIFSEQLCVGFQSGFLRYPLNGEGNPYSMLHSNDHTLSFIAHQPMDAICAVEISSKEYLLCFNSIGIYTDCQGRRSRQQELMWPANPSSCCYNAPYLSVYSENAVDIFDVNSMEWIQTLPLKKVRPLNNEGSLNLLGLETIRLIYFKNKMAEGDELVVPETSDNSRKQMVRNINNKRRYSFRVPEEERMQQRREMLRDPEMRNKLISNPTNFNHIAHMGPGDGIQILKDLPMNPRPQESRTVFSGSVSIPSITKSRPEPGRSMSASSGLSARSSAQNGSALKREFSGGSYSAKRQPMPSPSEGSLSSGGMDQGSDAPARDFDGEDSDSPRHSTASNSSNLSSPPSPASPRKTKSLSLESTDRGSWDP
Casein kinase II subunit alpha, sequence (P68400 whole entry): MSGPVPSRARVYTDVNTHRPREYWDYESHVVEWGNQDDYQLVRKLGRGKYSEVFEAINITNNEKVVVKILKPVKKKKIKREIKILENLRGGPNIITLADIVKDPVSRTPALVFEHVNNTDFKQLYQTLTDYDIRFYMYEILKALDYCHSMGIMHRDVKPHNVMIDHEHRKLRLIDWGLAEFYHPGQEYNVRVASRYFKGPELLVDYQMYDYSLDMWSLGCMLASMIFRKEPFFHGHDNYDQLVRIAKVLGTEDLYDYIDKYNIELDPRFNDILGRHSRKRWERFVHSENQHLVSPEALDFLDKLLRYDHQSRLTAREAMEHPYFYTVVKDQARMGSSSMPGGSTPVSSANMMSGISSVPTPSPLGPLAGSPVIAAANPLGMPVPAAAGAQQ

Ki [1]: > 10 µM (inactive)
Ki [2]: 501 nM (active)
Ki [3]: 20 nM (active)
Ki [4]: 200 nM (active)
Ki [5]: 126 nM (active)
Ki [6]: 20 nM (active)
Ki [7]: 79.4 nM (active)
Ki [8]: 398 nM (active)
Ki [9]: > 1.58 µM (inactive)
Ki [10]: > 1.58 µM (inactive)
Ki [11]: 12.6 nM (active)
Ki [12]: 794 nM (active)
Structure (SMILES): O=C1Nc2ccc3ncsc3c2C1=CNc1ccc(S(=O)(=O)Nc2ccccn2)cc1

Structure (SMILES): Cc1ccc(NC2=C/C(=N\S(=O)(=O)c3cccs3)c3ccccc3C2=O)c(C)c1
IC50 [13]: > 66.6 µM (inactive)
EC50 [14]: 1.56 µM (active)

Structure (SMILES): CC(=O)N(C1=C(Cl)C(=O)c2ccccc2C1=O)C1CCCCC1
IC50 [15]: 745 nM (active)
IC50 [16]: 7.15 µM (active)
